Results: patent US20070032477A1, “Pteridine derivatives useful for making pharmaceutical compositions” (priority 2003, published 2007)
Where a name gives a salt, the structure may show the parent alone.

Tests used:
[1] = test system: mixed lymphocyte reaction (PBMC with allogeneic PBMC or Eppstein-Barr Virus-transformed human B cells as stimulator cells); test: Mixed lymphocyte reaction (MLR) assay; type: cell-based; conditions: lowest concentration giving 50% suppression of the MLR; [3H]-thymidine
Procedure: Pteridine derivatives were first dissolved (10 mM) in dimethylsulfoxide (hereinafter referred as DMSO) and further diluted in culture medium before use for the following in vitro experiments. The commercially available culture medium consisted of RPMI-1640+10% foetal calf serum (FCS). Some pteridine derivatives described in the previous examples (as indicated in table 1) were tested in the following mixed lymphocyte reaction (MLR) assay.
Peripheral blood mononuclear cells (hereinafter referred as PBMC) were isolated from heparinized peripheral blood by density gradient centrifugation over Lymphoprep (Nycomed, Maorstua, Norway). Allogeneic PBMC or Eppstein-Barr Virus-transformed human B cells [commercially available under the trade name RPM11788 (ATCC name CCL156)] which strongly express B7-1 and B7-2 antigens were used as stimulator cells after irradiation with 30 Gy. MLR was performed in triplicate wells. After 5 days incubation at 37° C., 1 μCi [^3H]-thymidine was added to each cup. After a further 16 hours incubation, cells were harvested and counted in a […]. Inhibition of proliferation by a compound (drug) described in some of the previous examples was counted using the formula: [formula] wherein cpm is the thymidine count per minute. The MLR assay is regarded by those skilled in the art as an in vitro analogue of the transplant rejection since it is based on the recognition of allogeneic major histocompatibility antigens on the stimulator leukocytes, by responding lymphocytes.

[2] = test system: production of TNF-α by PBMC in response to stimulation by LPS; test: TNF-α assay; type: cell-based, human; conditions: LPS 1 μg/ml, 72 hours, sandwich ELISA
Procedure: Peripheral blood mononuclear cells (herein referred as PBMC), in response to stimulation by lipopolysaccharide (hereinafter LPS), a gram-negative bacterial endotoxin, produce various […], in particular human TNF-α. Inhibition of the activation of PBMC can therefore be measured by the level of suppression of the production of TNF-α by PBMC in response to stimulation by LPS.
Such inhibition measurement was performed as follows: PBMC were isolated from heparinized peripheral blood by density gradient centrifugation over Lymphoprep (commercially available from Nycomed, Norway). LPS was then added to the PMBC suspension in complete medium (10^6 cells/ml) at a final concentration of 1 μg/ml. The pteridine derivative to be tested was added at different concentrations (0.1 μM, 1 μM and 10 μM) and the cells were incubated at 37° C. for 72 hours in 5% CO2. The supernatants were collected, then TNF-α concentrations were measured with respectively an anti-TNF-α antibody in a sandwich ELISA (Duo Set ELISA human TNFα, commercially available from R&D Systems, United Kingdom). The calorimetric reading of the ELISA was measured by a Multiskan RC plate reader (commercially available from ThermoLabsystems, Finland) at 450 nm (reference wavelength: 690 nm). Data analysis was performed with Ascent software 2.6. (also from ThermoLabsystems, Finland): a standard curve (recombinant human TNFα) was drawn and the amount (pg/ml) of each sample on the standard curve was determined.
The % suppression of human TNFα production by the pteridine derivatives of the invention (drugs) was calculated using the formula: [formula]

Molecule	IC50 [1] [nM]	IC50 [2] [nM]	IC50 ([2]; Homo sapiens) [nM]
COc1ccc(-c2cnc3nc(N)nc(N4CCN(C(=O)Nc5ccc(F)c(Cl)c5)CC4)c3n2)cc1OC [Example 106, 2-amino-4-(N-3-chloro-4-fluorophenylcarbamoyl-piperazin-1-yl)-6-(3,4-dimethoxyphenyl)pteridine]	58	1400	–
COc1ccc(-c2cnc3nc(N)nc(N4CCN(C(=O)c5ccc(Cl)c(Cl)c5)CC4)c3n2)cc1OC [Example 44, 2-amino-4-[N-(3,4-dichlorobenzoyl)-piperazin-1-yl]-6-(3,4-dimethoxy-phenyl)pteridine]	200	700	–
COc1ccc(-c2cnc3nc(N)nc(N4CCN(C(=O)N5CCCC5)CC4)c3n2)cc1OC [Example 38, 2-amino-4-[(N-1-pyrrolidinylcarbonyl)-piperazin-1-yl]-6-(3,4-dimethoxy-phenyl)pteridine]	300	60	–
COc1ccc(-c2cnc3nc(N)nc(N4CCN(Cc5cccnc5)CC4)c3n2)cc1OC [Example 156]	–	400	–
CCCCNC(=O)N1CCN(c2nc(N)nc3ncc(-c4ccc(OC)c(OC)c4)nc23)CC1 [Example 109, 2-amino-4-[(N-butyl-carbamoyl-piperazin-1-yl)]-6-(3,4-dimethoxyphenyl)pteridine]	100	400	–
COc1ccc(-c2cnc3nc(N)nc(N4CCN(Cc5ccc(C(C)(C)C)cc5)CC4)c3n2)cc1OC [Example 144, 2-amino-4-((4-tert-butylbenzyl)piperazin-1-yl)-6-(3,4-dimethoxyphenyl)pteridine]	4300	700	–
COCC(=O)N1CCN(c2nc(N)nc3ncc(-c4ccc(OC)c(OC)c4)nc23)CC1 [Example 41, 2-amino-4-[(N-methoxyacetyl)-piperazin-1-yl]-6-(3,4-dimethoxyphenyl)pteridine]	500	–	–
COc1ccc(-c2cnc3nc(N)nc(N4CCN(Cc5ccc(C)cc5)CC4)c3n2)cc1OC [Example 140, 2-amino-4-((4-methylbenzyl)piperazin-1-yl)-6-(3,4-dimethoxyphenyl)pteridine]	–	1300	–
CC(=O)N1CCN(c2nc(N)nc3ncc(-c4ccccc4)nc23)CC1 [Example 55, 2-amino-4-(N-acetylpiperazin-1-yl)-6-phenyl-pteridine]	5100	–	–
COc1ccc(-c2cnc3nc(N)nc(N4CCN(C(=O)Nc5ccc(Br)cc5)CC4)c3n2)cc1OC [Example 196, 2-amino-4-(N-4-bromo-phenyl-carbamoyl-piperazin-1-yl)-6-(3,4-dimethoxyphenyl)pteridine]	100	–	–
COc1cc(-c2cnc3nc(N)nc(N4CCN(c5ccc(C)cc5)CC4)c3n2)ccc1OC(C)C [Example 208]	4400	–	–
COc1ccc(-c2cnc3nc(N)nc(N4CCN(C(=O)Nc5ccc(C(F)(F)F)cc5)CC4)c3n2)cc1OC [Example 194, 2-amino-4-(N-4-trifluoromethyl-phenyl-carbamoyl-piperazin-1-yl)-6-(3,4-dimethoxyphenyl)pteridine]	52	–	–
COc1ccc(-c2cnc3nc(N)nc(N4CCN(Cc5ccc(F)cc5)CC4)c3n2)cc1OC [Example 138, 2-amino-4-((4-fluorobenzyl)piperazin-1-yl)-6-(3,4-dimethoxyphenyl)pteridine]	6000	–	–
COc1ccc(-c2cnc3nc(N)nc(N4CCN(CCN(C)C)CC4)c3n2)cc1OC [Example 181, 2-amino-6-(3,4-dimethoxyphenyl)-4-(4-(2-dimethylaminoethyl)-piperazin-1-yl)-pteridine trihydrochloride salt]	–	–	8800
COc1ccc(-c2cnc3nc(N)nc(N4CCN(CCCN(C)C)CC4)c3n2)cc1OC [Example 182, 2-amino-6-(3,4-dimethoxyphenyl)-4-(4-(3-dimethylaminopropyl)-piperazin-1-yl)pteridine trihydrochloride salt]	–	–	4800
COc1ccc(-c2cnc3nc(N)nc(N4CCN(C(C)=O)CC4)c3n2)cc1OC [Example 8, 2-amino-4-(N-acetylpiperazin-1-yl)-6-(3,4-dimethoxyphenyl)pteridine]	–	400	–

Molecule	IC50 [1] [nM]	IC50 [2] [nM]	IC50 ([2]; Homo sapiens) [nM]
CCOC(=O)CN1CCN(c2nc(N)nc3ncc(-c4ccc(OC)c(OC)c4)nc23)CC1 [Example 135, 2-amino-4-(2-(piperazin-1-yl)-acetic acid ethyl ester)-6-(3,4-dimethoxyphenyl)pteridine]	–	270	–
COc1ccc(-c2cnc3nc(N)nc(N4CCN(C(=O)[C@@H](N)CC(N)=O)CC4)c3n2)cc1OC [Example 111, 2-amino-4-[N-[2-(S),4-diamino-4-oxobutanoyl]-piperazin-1-yl]-6-(3,4-dimethoxyphenyl)pteridine]	8800	–	–
COc1ccc(-c2cnc3nc(N)nc(N4CCN(C(=O)CN(C)C)CC4)c3n2)cc1OC [Example 113, 2-amino-4-[N-[4-(dimethylamino)acetyl]-piperazin-1-yl]-6-(3,4-dimethoxy-phenyl)pteridine]	–	3200	–
COc1ccc(-c2cnc3nc(N)nc(N4CCN(C(=O)c5cc(F)c(Cl)nc5Cl)CC4)c3n2)cc1OC [Example 40]	–	700	–
2-amino-4-(1-(2-imidazol-1-yl-ethyl-piperazine)-6-(3,4-dimethoxyphenyl)pteridine [Example 155]	3600	–	–
CCN(C(=O)N1CCN(c2nc(N)nc3ncc(-c4ccc(OC)c(OC)c4)nc23)CC1)c1ccccc1 [Example 118, 2-amino-4-(N-ethyl-N-phenyl-carbamoyl-piperazin-1-yl)-6-(3,4-dimethoxyphenyl)pteridine]	–	70	–
COc1ccc(-c2cnc3nc(N)nc(N4CCN(Cc5ccc6c(c5)OCO6)CC4)c3n2)cc1OC [Example 143, 2-amino-4-(piperonyl-piperazin-1-yl)-6-(3,4-dimethoxyphenyl)pteridine]	–	800	–
CC(=O)N1CCN(c2nc(N)nc3ncc(-c4ccc(Cl)cc4)nc23)CC1 [Example 58, 2-amino-4-(N-acetylpiperazin-1-yl)-6-(4-chloro-phenyl)pteridine]	7600	–	–
COc1ccc(-c2cnc3nc(N)nc(N4CCN(C(=O)Nc5cccc(I)c5)CC4)c3n2)cc1OC [Example 197, 2-amino-4-(N-3-iodo-phenyl-carbamoyl-piperazin-1-yl)-6-(3,4-dimethoxyphenyl)pteridine]	40	–	–
COC(=O)c1ccc(C(=O)N2CCN(c3nc(N)nc4ncc(-c5ccc(OC)c(OC)c5)nc34)CC2)cc1 [Example 112, 2-amino-4-[N-[4-(methoxycarbonyl)benzoyl]-piperazin-1-yl]-6-(3,4-dimethoxy-phenyl)pteridine]	–	280	–
COc1ccc(-c2cnc3nc(N)nc(N4CCN(c5cccc(C)c5)CC4)c3n2)cc1OC [Example 175, 2-amino-6-(3,4-dimethoxyphenyl)-4-((3-methylphenyl)-piperazin-1-yl)pteridine]	400	–	–
COCCN1CCN(c2nc(N)nc3ncc(-c4ccc(OC)c(OC)c4)nc23)CC1 [Example 122, 2-amino-4-(1-(2-methoxyethyl)piperazino)-6-(3,4-dimethoxyphenyl)pteridine]	800	–	–
COc1ccc(-c2cnc3nc(N)nc(N4CCN(C(=O)c5ccoc5)CC4)c3n2)cc1OC [Example 47, 2-amino-4-[N-(3-furoylcarbonyl)-piperazin-1-yl]-6-(3,4-dimethoxyphenyl)pteridine]	300	–	–
COc1ccc(-c2cnc3nc(N)nc(N4CCN(CC5OCCO5)CC4)c3n2)cc1OC [Example 170, 2-amino-6-(3,4-dimethoxyphenyl)-4-(1,3-dioxolan-2-yl-methylpiperazin-1-yl)pteridine]	–	400	–
COc1ccc(-c2cnc3nc(N)nc(N4CCN(C(=O)[C@@H]5CCCN5)CC4)c3n2)cc1OC [Example 62, 2-amino-4-[N-(pyrrolidin-2-(S)-yl)carbonyl-piperazin-1-yl]-6-(3,4-dimethoxy-phenyl)pteridine]	–	7600	–
COc1ccc(-c2cnc3nc(N)nc(N4CCN(C(=O)NCc5ccccc5)CC4)c3n2)cc1OC [Example 104, 2-amino-4-(N-benzylcarbamoyl-piperazin-1-yl)-6-(3,4-dimethoxyphenyl)pteridine]	18	–	–
